According to patent publication US20120329739A1 (priority 2010, published 2012):

How the values were obtained:
[1] = tested on: hair graying-induced mice (Mitf^mi-vit); conditions: mouse, in vivo
melan-A melanocytes = type: cell-based

SMILES: O=c1c(-c2ccc(O)cc2)coc2c([C@@H]3O[C@H](CO)[C@@H](O)[C@H](O)[C@H]3O)c(O)ccc12 [puerarin, 8-C-β-D-glucopyranosyl-7-hydroxy-3-(4-hydroxyphenyl)-4H-1-benzopyran-4-one]
- concentration dependence of the effect on hair melanin content [1]: the effect increases as the concentration of puerarin increases
- concentration dependence of melanin synthesis promoting effect (melan-A melanocytes): concentration-dependent
- melanin content relative to the negative control group (melan-A melanocytes): the melanin content is higher than the negative control group
